According to patent publication US9585933B2, “Therapeutic use of peptide inhibitors of NADPH oxidase; aerosolization as a delivery mechanism” (University of Pittsburgh—Of the Commonwealth System of …, priority 2011, dated 2017):
Where no end group is shown, it is not given here.

Molecular target: T1, Nox1 oxidase (COS-Nox1 lysate: hNox1, p22phox, NOXO1, NOXA1) (Homo sapiens, UniProt Q9Y5S8)
T1 construct: expressed in transfected cells; host or cells: COS-22 cells (COS 7 with p22phox), transiently cotransfected; cell lysate used
T1 sequence (Q9Y5S8 1-564): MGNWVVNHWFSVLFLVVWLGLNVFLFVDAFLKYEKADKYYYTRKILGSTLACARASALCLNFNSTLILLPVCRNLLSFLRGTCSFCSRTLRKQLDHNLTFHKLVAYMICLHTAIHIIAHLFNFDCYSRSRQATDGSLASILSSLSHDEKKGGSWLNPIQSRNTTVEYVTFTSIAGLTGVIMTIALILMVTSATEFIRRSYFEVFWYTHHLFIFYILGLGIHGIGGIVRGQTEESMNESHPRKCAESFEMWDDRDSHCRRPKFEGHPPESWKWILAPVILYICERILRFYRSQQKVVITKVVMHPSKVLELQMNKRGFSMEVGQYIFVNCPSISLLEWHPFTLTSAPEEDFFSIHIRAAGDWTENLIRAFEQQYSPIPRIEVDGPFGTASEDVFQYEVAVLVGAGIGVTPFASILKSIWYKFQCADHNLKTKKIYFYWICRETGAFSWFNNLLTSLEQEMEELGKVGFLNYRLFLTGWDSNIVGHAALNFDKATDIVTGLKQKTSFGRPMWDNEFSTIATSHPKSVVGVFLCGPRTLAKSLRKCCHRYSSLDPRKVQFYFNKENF
T1 sequence (P13498 2-195 partner limits assumed): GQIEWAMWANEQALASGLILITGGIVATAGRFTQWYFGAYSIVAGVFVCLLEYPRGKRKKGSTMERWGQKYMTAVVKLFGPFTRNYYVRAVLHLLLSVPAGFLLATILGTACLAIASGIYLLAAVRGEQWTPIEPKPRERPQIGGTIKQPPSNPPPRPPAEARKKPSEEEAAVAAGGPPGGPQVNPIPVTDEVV
Test: Cell-free SOD-inhibitable cytochrome c reduction assay, O2- production in COS-Nox1 lysates
Assay type: biochemical
Experimental: To test this hypothesis, the inhibitory activity of Nox2ds was assessed in cell-free assays using reconstituted systems expressing either Nox1, 2 or 4 oxidase. Nox 2 oxidase was recapitulated by stably transfecting COS 7 cells with Nox2, p22phox, p47phox, and p67phox (aka COS-Nox2). Nox1 oxidase was obtained by transfecting COS 7 cells with Nox1, p22phox, NOXO1 and NOXA1 (COS-Nox1), and Nox 4 oxidase was regenerated by transfection of COS 7 cells with Nox4 and p22phox. […] Our new data support selectivity of Nox2ds peptide in differentiating the contribution of Nox2 vs. Nox1 and Nox4 NADPH oxidase and its potential clinical use in ameliorating cardiopulmonary diseases.
Cell transfection was carried out using Lipofectamine LTX and Plus reagent (Invitrogen), according to the manufacturer's instructions. COS-22 cells were transiently cotransfected with pcDNA 3.1-hNox1, pCMVsport 6-hNOXA1, and pcDNA3.1-hNoxO1 (COS-Nox1/NOXO1/NOXA1 cells). Cells were used 24 h after transfection. […]
Superoxide (O2^−) production was measured in COS-Nox1 and COS-Nox2 lysates by determining the rate of O2^− dismutase (SOD) inhibitable cytochrome c reduction and by electron paramagnetic resonance (EPR). […]
O2^− production was initiated by the addition of NADPH and measured by the SOD-inhibitable cytochrome c reduction for 10 min.

Substance: CSTRVRRQL-NH2 [Nox2ds, CSTRVRRQL]
- inhibition of Nox1-derived O2- production (in words): did not inhibit
- rate of Nox1-derived O2- production, cytochrome c reduction (10 μM peptide, 0 μM control 0.97±0.14): 0.765±0.19 nmol O2^−/min/10^7 cell equivalents
